Data published in publication PMC9363195, “Preclinical Pharmacokinetics, Biodistribution, and Acute Toxicity Evaluation of Caerin 1.9 Peptide in Sprague Dawley Rats” (Evidence-based Complementary and Alternative Medicine : eCAM, 2022).
Peptide text beside a SMILES is read from it.

Experiments:
SD rats [1] = experiment: Hematology and coagulation analysis in acute toxicity study; assay type: in vivo, Sprague Dawley rats; conditions: male SD rats, day 15, mean ± SD
Method: Forty SD rats (20 males and 20 females) were randomly divided into 4 groups (Figure 1). All rats were given F3 once on the day of the experiment.
Twelve SD rats (6 males, 6 females) were given a daily subcutaneous injection of F3 at a dose of 10.0 mg/kg for consecutive 14 days. The first day of administration was recorded as day 1.
(§1) For 14 days, the body weight was measured before F3 administration on the first day of the experiment and once a week thereafter, with additional measurements on the day before and on the day of the planned autopsy. Food intake was recorded once a week. The rats were anesthetized by inhalation of 70% CO2/30% O2 before dissection, and blood samples were taken for hematology and biochemical analysis. The collected tissue was weighed and preserved for pathological examination.
Blood smears were used to investigate the morphology of basophils (ABBASO), eosinophils (ABEOS), neutrophils (ABNEUT), monocytes (ABMONO), and lymphocytes (ABLYMP) in the peripheral blood. When white blood cell classification and reticulocyte count cannot be calculated directly by ADVIA 2120i, they were manually counted and calculated following the procedure published previously. The number of platelets was determined manually when they could not be counted mechanically because of coagulation. Wright-Giemsa staining was used to prepare blood smears for cell morphology.
Liver and renal functions were measured with special attention to alanine aminotransferase (ALT), aspartate aminotransferase (AST), alkaline phosphatase (ALP), serum creatinine, total bilirubin, and urea levels. In addition, the levels of glucose, calcium, total protein, and albumin in serum samples were measured. The blood biochemical test, hematology test, and coagulation function test were detected by Hitachi 7180 automatic biochemical analyzer, Siemens ADVIA 2120i hematology analyzer, and Stargo Emo Express Hemagglutination analyzer, respectively.

SD rats [2] = experiment: Food intake and body weight gain in acute toxicity study; assay type: in vivo, Sprague Dawley rats; conditions: single or repeated s.c. injection
Method: as §1

[3] = s.c. 10.0 mg/kg daily x14 d, n=6

CC[C@H](C)[C@H](NC(=O)[C@H](CO)NC(=O)CNC(=O)[C@H](CC(C)C)NC(=O)[C@@H](NC(=O)CNC(=O)[C@H](Cc1ccccc1)NC(=O)[C@H](CC(C)C)NC(=O)CN)C(C)C)C(=O)N[C@@H](C)C(=O)N[C@@H](CCCCN)C(=O)N[C@@H](Cc1c[nH]cn1)C(=O)N[C@H](C(=O)N[C@@H](CC(C)C)C(=O)N1CCC[C@H]1C(=O)N[C@@H](Cc1c[nH]cn1)C(=O)N[C@H](C(=O)N[C@H](C(=O)N1CCC[C@H]1C(=O)N[C@H](C(=O)N[C@H](C(=O)N[C@@H](C)C(=O)N[C@@H](CCC(=O)O)C(=O)N[C@@H](CCCCN)C(=O)N[C@@H](CC(C)C)C(N)=O)[C@@H](C)CC)C(C)C)C(C)C)C(C)C)C(C)C [F3, Caerin 1.9] (H-GLFGVLGSIAKHVLPHVVPVIAEKL-NH2) was tested, and the “ABBASO (basophils)” value (SD rats [1]; [3]) was 0.01 ± 0.01 10^9/L, the “ABEOS (eosinophils)” value (SD rats [1]; [3]) was 0.17 ± 0.06 10^9/L and the “ABLYMP (lymphocytes)” value (SD rats [1]; [3]) was 10.1 ± 2.26 10^9/L. The “ABMONO (monocytes)” value (SD rats [1]; [3]) was 0.34 ± 0.09 10^9/L, the “ABNEUT (neutrophils)” value (SD rats [1]; [3]) was 2.43 ± 1.39 10^9/L and the ABRETIC (SD rats [1]; [3]) was 338.6 ± 20.2 10^9/L. The APTT (SD rats [1]; [3]) was 16.2 ± 1.82 s, the HCT (SD rats [1]; [3]) was 42.18 ± 0.92% and the HGB (SD rats [1]; [3]) was 12.68 ± 0.34 g/dL. For the same molecule, the MCH (SD rats [1]; [3]) was 18.28 ± 0.56 pg, the MCHC (SD rats [1]; [3]) was 30.08 ± 0.52 g/dL and the MCV (SD rats [1]; [3]) was 60.78 ± 1.44 fL. The MPV (SD rats [1]; [3]) was 9.05 ± 0.36 fL, the PLT (SD rats [1]; [3]) was 1421.5 ± 225.3 10^9/L and the PT (SD rats [1]; [3]) was 20.87 ± 1.2 s. For the same molecule, the RBC (SD rats [1]; [3]) was 6.94 ± 0.18 10^12/L, the WBC (SD rats [1]; [3]) was 13.19 ± 3.49 10^9/L and the “ABBASO (basophils)” value (SD rats [1]; single s.c. 1.0 mg/kg, n=5) was 0.005 ± 0.006 10^9/L. The “ABEOS (eosinophils)” value (SD rats [1]; single s.c. 1.0 mg/kg, n=5) was 0.088 ± 0.013 10^9/L, the “ABLYMP (lymphocytes)” value (SD rats [1]; single s.c. 1.0 mg/kg, n=5) was 7.695 ± 0.12 10^9/L and the “ABMONO (monocytes)” value (SD rats [1]; single s.c. 1.0 mg/kg, n=5) was 0.283 ± 0.124 10^9/L. The “ABNEUT (neutrophils)” value (SD rats [1]; single s.c. 1.0 mg/kg, n=5) was 1.185 ± 0.375 10^9/L, the ABRETIC (SD rats [1]; single s.c. 1.0 mg/kg, n=5) was 250.78 ± 19.32 10^9/L and the APTT (SD rats [1]; single s.c. 1.0 mg/kg, n=5) was 17.44 ± 0.85 s. The HCT (SD rats [1]; single s.c. 1.0 mg/kg, n=5) was 48.4 ± 1.29%, the HGB (SD rats [1]; single s.c. 1.0 mg/kg, n=5) was 15.1 ± 0.41 g/dL and the MCH (SD rats [1]; single s.c. 1.0 mg/kg, n=5) was 18.63 ± 1.63 pg. For the same molecule, the MCHC (SD rats [1]; single s.c. 1.0 mg/kg, n=5) was 31.23 ± 0.69 g/dL, the MCV (SD rats [1]; single s.c. 1.0 mg/kg, n=5) was 59.58 ± 4.36 fL and the MPV (SD rats [1]; single s.c. 1.0 mg/kg, n=5) was 9.35 ± 0.33 fL. For the same molecule, the PLT (SD rats [1]; single s.c. 1.0 mg/kg, n=5) was 862.8 ± 95.1 10^9/L, the PT (SD rats [1]; single s.c. 1.0 mg/kg, n=5) was 19.76 ± 0.92 s and the RBC (SD rats [1]; single s.c. 1.0 mg/kg, n=5) was 8.163 ± 0.679 10^12/L. The WBC (SD rats [1]; single s.c. 1.0 mg/kg, n=5) was 9.315 ± 0.344 10^9/L, the “ABBASO (basophils)” value (SD rats [1]; single s.c. 10.0 mg/kg, n=5) was 0.012 ± 0.008 10^9/L and the “ABEOS (eosinophils)” value (SD rats [1]; single s.c. 10.0 mg/kg, n=5) was 0.086 ± 0.059 10^9/L. For the same molecule, the “ABLYMP (lymphocytes)” value (SD rats [1]; single s.c. 10.0 mg/kg, n=5) was 10.178 ± 2.676 10^9/L, the “ABMONO (monocytes)” value (SD rats [1]; single s.c. 10.0 mg/kg, n=5) was 0.262 ± 0.043 10^9/L and the “ABNEUT (neutrophils)” value (SD rats [1]; single s.c. 10.0 mg/kg, n=5) was 1.498 ± 0.573 10^9/L. The ABRETIC (SD rats [1]; single s.c. 10.0 mg/kg, n=5) was 252.72 ± 25.77 10^9/L, the APTT (SD rats [1]; single s.c. 10.0 mg/kg, n=5) was 17.86 ± 1.84 s and the HCT (SD rats [1]; single s.c. 10.0 mg/kg, n=5) was 47.5 ± 1.89%. The HGB (SD rats [1]; single s.c. 10.0 mg/kg, n=5) was 14.72 ± 0.59 g/dL, the MCH (SD rats [1]; single s.c. 10.0 mg/kg, n=5) was 18.6 ± 0.49 pg and the MCHC (SD rats [1]; single s.c. 10.0 mg/kg, n=5) was 30.98 ± 0.24 g/dL. The MCV (SD rats [1]; single s.c. 10.0 mg/kg, n=5) was 60.06 ± 2.02 fL, the PLT (SD rats [1]; single s.c. 10.0 mg/kg, n=5) was 878 ± 118.5 10^9/L and the PT (SD rats [1]; single s.c. 10.0 mg/kg, n=5) was 19.88 ± 0.94 s. For the same molecule, the RBC (SD rats [1]; single s.c. 10.0 mg/kg, n=5) was 7.916 ± 0.383 10^12/L, the WBC (SD rats [1]; single s.c. 10.0 mg/kg, n=5) was 12.12 ± 2.998 10^9/L and the “ABBASO (basophils)” value (SD rats [1]; single s.c. 100.0 mg/kg, n=5) was 0.01 ± 0.01 10^9/L. For the same molecule, the “ABEOS (eosinophils)” value (SD rats [1]; single s.c. 100.0 mg/kg, n=5) was 0.11 ± 0.062 10^9/L, the “ABLYMP (lymphocytes)” value (SD rats [1]; single s.c. 100.0 mg/kg, n=5) was 8.444 ± 1.168 10^9/L and the “ABMONO (monocytes)” value (SD rats [1]; single s.c. 100.0 mg/kg, n=5) was 0.27 ± 0.06 10^9/L. The “ABNEUT (neutrophils)” value (SD rats [1]; single s.c. 100.0 mg/kg, n=5) was 1.742 ± 0.58 10^9/L, the ABRETIC (SD rats [1]; single s.c. 100.0 mg/kg, n=5) was 270.82 ± 25.29 10^9/L and the APTT (SD rats [1]; single s.c. 100.0 mg/kg, n=5) was 17.34 ± 1.96 s. It also gave an HCT (SD rats [1]; single s.c. 100.0 mg/kg, n=5) of 47.62 ± 1.59%, an HGB (SD rats [1]; single s.c. 100.0 mg/kg, n=5) of 14.6 ± 0.55 g/dL and an MCH (SD rats [1]; single s.c. 100.0 mg/kg, n=5) of 18.86 ± 0.15 pg. For the same molecule, the MCV (SD rats [1]; single s.c. 100.0 mg/kg, n=5) was 61.52 ± 0.65 fL, the MPV (SD rats [1]; single s.c. 100.0 mg/kg, n=5) was 9.26 ± 0.24 fL and the PLT (SD rats [1]; single s.c. 100.0 mg/kg, n=5) was 985.4 ± 65 10^9/L. For the same molecule, the PT (SD rats [1]; single s.c. 100.0 mg/kg, n=5) was 20.14 ± 0.95 s, the RBC (SD rats [1]; single s.c. 100.0 mg/kg, n=5) was 7.742 ± 0.232 10^12/L and the WBC (SD rats [1]; single s.c. 100.0 mg/kg, n=5) was 10.654 ± 1.291 10^9/L. The “effect on food intake, body weight, and weight change” value (SD rats [2]) was “no effect”.
